Target: human wild type-CFTR (Homo sapiens, UniProt P13569)
Assay: Cell-based YFP assay
Parameters: expressed in transfected cells; host or cells: CHO-K1 (Chinese hamster ovary)
Details: CHO-K1 cells expressing human wild type-CFTR and YFP-H148Q/I152L; forskolin 20 μM = 100% activity; read-out: Cell-based YFP Assay (EC50) Concentration Range
In short: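 CHO-K1 cells co-expressing human wild-type CFTR and YFP-H148Q/I152L halide sensor, grown 48 h at 37 °C, then in PBS. YFP quenching by I⁻ influx read at 37 °C after adding 140 mM I⁻ solution, sampled every 0.4 s for 14 s. Triplicates averaged; EC50 fitted.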

human wild type-CFTR, sequence (P13569 whole entry): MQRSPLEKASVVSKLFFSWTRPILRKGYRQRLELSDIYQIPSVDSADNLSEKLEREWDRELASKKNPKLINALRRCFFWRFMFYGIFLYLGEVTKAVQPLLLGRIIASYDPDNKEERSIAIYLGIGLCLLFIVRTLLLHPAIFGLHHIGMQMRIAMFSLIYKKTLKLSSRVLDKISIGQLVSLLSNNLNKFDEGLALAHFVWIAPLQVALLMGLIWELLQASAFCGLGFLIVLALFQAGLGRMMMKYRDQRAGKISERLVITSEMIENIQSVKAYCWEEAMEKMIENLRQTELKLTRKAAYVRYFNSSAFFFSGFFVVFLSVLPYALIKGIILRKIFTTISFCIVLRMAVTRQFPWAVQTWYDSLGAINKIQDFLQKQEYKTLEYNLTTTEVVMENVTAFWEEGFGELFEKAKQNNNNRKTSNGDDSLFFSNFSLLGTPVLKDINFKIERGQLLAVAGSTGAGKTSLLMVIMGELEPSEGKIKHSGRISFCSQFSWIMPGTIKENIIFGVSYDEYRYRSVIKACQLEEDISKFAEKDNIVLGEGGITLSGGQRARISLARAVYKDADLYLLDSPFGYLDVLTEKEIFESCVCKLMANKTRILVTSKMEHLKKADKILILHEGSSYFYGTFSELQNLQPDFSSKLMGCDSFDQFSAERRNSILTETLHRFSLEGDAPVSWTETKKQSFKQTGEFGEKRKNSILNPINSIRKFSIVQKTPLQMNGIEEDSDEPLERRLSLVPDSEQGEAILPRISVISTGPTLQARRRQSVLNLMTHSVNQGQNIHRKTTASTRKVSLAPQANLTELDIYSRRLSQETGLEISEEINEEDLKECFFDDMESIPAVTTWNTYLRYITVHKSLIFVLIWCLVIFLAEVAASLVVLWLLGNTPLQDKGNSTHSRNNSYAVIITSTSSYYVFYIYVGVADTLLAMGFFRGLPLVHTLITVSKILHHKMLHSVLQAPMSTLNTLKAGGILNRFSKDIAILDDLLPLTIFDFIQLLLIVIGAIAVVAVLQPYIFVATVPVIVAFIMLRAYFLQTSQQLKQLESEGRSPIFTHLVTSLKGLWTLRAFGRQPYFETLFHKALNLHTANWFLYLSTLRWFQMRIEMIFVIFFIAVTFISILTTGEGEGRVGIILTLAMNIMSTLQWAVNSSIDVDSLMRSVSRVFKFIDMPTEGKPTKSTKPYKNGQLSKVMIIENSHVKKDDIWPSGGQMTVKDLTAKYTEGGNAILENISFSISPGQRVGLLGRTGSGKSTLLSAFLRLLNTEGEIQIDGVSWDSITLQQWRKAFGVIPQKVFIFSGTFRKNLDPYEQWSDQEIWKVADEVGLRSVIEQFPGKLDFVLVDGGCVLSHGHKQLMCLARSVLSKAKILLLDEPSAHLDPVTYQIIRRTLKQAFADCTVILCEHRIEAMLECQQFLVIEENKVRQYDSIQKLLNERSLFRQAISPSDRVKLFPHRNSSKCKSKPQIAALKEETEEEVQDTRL

SMILES | EC50 [nM]
COc1ccc(-c2ccnc3cc(C(=O)NC45CC(C(=O)N6CCNCC6)(C4)C5)nn23)cc1OC [Compound 98, 7-(3,4-dimethoxyphenyl)-N-(3-(piperazine-1-carbonyl)bicyclo [1.1.1]pentan-1-yl)pyrazolo[1,5-a] pyrimidine-2-carboxamide] | ≥ 2000
COc1ccc(-c2ccnc3cc(C(=O)Nc4ccc(CN5CCOCC5)cc4)nn23)cc1OC [Compound 244, 7-(3,4-dimethoxyphenyl)-N-(4-(morpholinomethyl)phenyl) pyrazolo[1,5-a]pyrimidine-2-carboxamide] | < 200
COc1ccc(-c2ccnc3cc(C(=O)Nc4ccc(OC(=O)[C@@H](NC(=O)OCc5ccccc5)C(C)C)cc4)nn23)cc1OC [Compound 171, 4-(7-(3,4-dimethoxyphenyl)pyrazolo[1,5-a]pyrimidine-2-carboxamido)phenyl ((benzyloxy)carbonyl)-L-valinate] | < 200
COc1ccc(-c2ccnc3cc(C(=O)NC45CC(NC(=O)N6CCOCC6)(C4)C5)nn23)cc1OC [Compound 138, N-(3-(7-(3,4-dimethoxyphenyl)pyrazolo[1,5-a]pyrimidine-2-carboxamido)bicyclo [1.1.1]pentan-1-yl)morpholine-4-carboxamide] | ≥ 2000
COCCOCOC(=O)c1ccc(NC(=O)c2cc3nccc(-c4ccc(OC)c(OC)c4)n3n2)cc1 [Compound 329, (2-methoxyethoxy)methyl 4-(7-(3,4-dimethoxyphenyl)pyrazolo [1,5-a]pyrimidine-2-carboxamido)benzoate] | < 200
COc1ccc(-c2ccnc3cc(C(=O)NCc4ccc(N5CCOCC5)cc4)nn23)cc1OC [Compound 246, 7-(3,4-dimethoxyphenyl)-N-(4-morpholinobenzyl)pyrazolo [1,5-a]pyrimidine-2-carboxamide] | 200 to 2000
COc1ccc(-c2ccnc3cc(C(=O)Nc4ccc(C(=O)NCCCN5CCCC5)cc4)nn23)cc1OC [Compound 224, 7-(3,4-dimethoxyphenyl)-N-(4-((3-(pyrrolidin-1-yl)propyl)carbamoyl)phenyl)pyrazolo[1,5-a]pyrimidine-2-carboxamide] | ≥ 2000
COc1ccc(-c2ccnc3cc(C(=O)N4CCNC(C)(C)C4)nn23)cc1OC [Compound 182, (7-(3,4-dimethoxyphenyl)pyrazolo[1,5-a]pyrimidin-2-yl)(3,3-dimethylpiperazin-1-yl)methanone] | ≥ 2000
CCOc1ccc(NC(=O)c2cc3nccc(-c4cccs4)n3n2)cc1 [Compound 303, N-(4-ethoxyphenyl)-7-(thiophen-2-yl) pyrazolo[1,5-a]pyrimidine-2-carboxamide] | ≥ 2000
COc1ccc(-c2ccnc3cc(C(=O)N4CCN(C(=O)OC(C)(C)C)[C@H](C)C4)nn23)cc1OC [Compound 321, tert-butyl (R)-4-(7-(3,4-dimethoxyphenyl)pyrazolo [1,5-a]pyrimidine-2-carbonyl)-2-methylpiperazine-1-carboxylate] | 200 to 2000
COc1ccc(-c2ccnc3cc(C(=O)Nc4ccc(C(=O)OCCCN5CCOCC5)c(Cl)c4)nn23)cc1OC [Compound 162, 3-morpholinopropyl 2-chloro-4-(7-(3,4-dimethoxyphenyl)pyrazolo [1,5-a]pyrimidine-2-carboxamido)benzoate] | ≥ 2000
COc1ccc(-c2ccnc3cc(C(=O)Nc4ccc(C(=O)NCCN5CCCCC5)cc4)nn23)cc1OC [Compound 119, 7-(3,4-dimethoxyphenyl)-N-(4-((2-(piperidin-1-yl)ethyl)carbamoyl)phenyl) pyrazolo[1,5-a]pyrimidine-2-carboxamide] | 200 to 2000
COc1ccc(-c2ccnc3cc(C(=O)Nc4ccc(C(=O)O)c(F)c4)nn23)cc1OC [Compound 278, 4-(7-(3,4-dimethoxyphenyl)pyrazolo[1,5-a]pyrimidine-2-carboxamido)-2-fluorobenzoic acid] | ≥ 2000
COc1ccc(-c2ccnc3cc(C(=O)Nc4ccc(NC(=O)CN(C)C)cc4)nn23)cc1OC [Compound 258, 7-(3,4-dimethoxyphenyl)-N-(4-(2-(dimethylamino)acetamido)phenyl)pyrazolo[1,5-a]pyrimidine-2-carboxamide] | < 200
COc1ccc(-c2ccnc3cc(C(=O)N4CCN(C(=O)c5ccccc5)C(C)(C)C4)nn23)cc1OC [Compound 211, (4-benzoyl-3,3-dimethylpiperazin-1-yl) (7-(3,4-dimethoxyphenyl)pyrazolo [1,5-a]pyrimidin-2-yl)methanone] | 200 to 2000
COc1ccc(-c2ccnc3cc(C(=O)N4CCCc5cc(C(=O)O)ccc54)nn23)cc1OC [Compound 233, 1-(7-(3,4-dimethoxyphenyl)pyrazolo[1,5-a]pyrimidine-2-carbonyl)-1,2,3,4-tetrahydroquinoline-6-carboxylic acid] | ≥ 2000
COc1ccc(-c2ccnc3cc(C(=O)N4CCN(C(=O)c5ccncc5)[C@@H](C)C4)nn23)cc1OC [Compound 357, (S)-(7-(3,4-dimethoxyphenyl)pyrazolo[1,5-a]pyrimidin-2-yl)(4-isonicotinoyl-3-methylpiperazin-1-yl)methanone] | 200 to 2000

SMILES | EC50 [nM]
COc1ccc(-c2ccnc3cc(C(=O)Nc4ccc(Br)cc4)nn23)cc1OC [Compound 268, N-(4-bromophenyl)-7-(3,4-dimethoxyphenyl)pyrazolo [1,5-a]pyrimidine-2-carboxamide] | < 200
COc1ccc(-c2ccnc3cc(C(=O)N4CCN(C(=O)c5ccccc5C)[C@@H](C)C4)nn23)cc1OC [Compound 381, (S)-(7-(3,4-dimethoxyphenyl)pyrazolo[1,5-a]pyrimidin-2-yl) (3-methyl-4-(2-methylbenzoyl)piperazin-1-yl)methanone] | < 200
COc1ccc(-c2ccnc3cc(C(=O)N4CCN(C(=O)c5ccco5)[C@@H](C)C4)nn23)cc1OC [Compound 353, (S)-(7-(3,4-dimethoxyphenyl)pyrazolo[1,5-a]pyrimidin-2-yl)(4-(furan-2-carbonyl)-3-methylpiperazin-1-yl)methanone] | < 200
COc1ccc(-c2ccnc3cc(C(=O)N4CCN(C(=O)c5ccc(C)cc5)[C@@H](C)C4)nn23)cc1OC [Compound 351, (S)-(7-(3,4-dimethoxyphenyl)pyrazolo[1,5-a]pyrimidin-2-yl)(3-methyl-4-(4-methylbenzoyl)piperazin-1-yl)methanone] | < 200
COc1ccc(-c2ccnc3cc(NC(=O)C45CCC(N6CCOCC6)(CC4)CC5)nn23)cc1OC [Compound 288, N-(7-(3,4-dimethoxyphenyl)pyrazolo[1,5-a]pyrimidin-2-yl)-4-morpholinobicyclo[2.2.2]octane-1-carboxamide] | ≥ 2000
COc1ccc(-c2ccnc3cc(C(=O)Nc4ccc(C(=O)OCCCN5CCN(C)CC5)cn4)nn23)cc1OC [Compound 189, 3-(4-methylpiperazin-1-yl) propyl 6-(7-(3,4-dimethoxyphenyl)pyrazolo [1,5-a]pyrimidine-2-carboxamido)nicotinate] | < 200
COc1ccc(-c2ccnc3cc(C(=O)N4CCN(C(=O)c5cccnc5)[C@@H](C)C4)nn23)cc1OC [Compound 382, (S)-(7-(3,4-dimethoxy-phenyl)pyrazolo[1,5-a]pyrimidin-2-yl) (3-methyl-4-nicotinoylpiperazin-1-yl)methanone] | < 200
COC(=O)c1ccc(NC(=O)c2cc3nccc(-c4ccc(OC)c(OC)c4)n3n2)cn1 [Compound 190, methyl 5-(7-(3,4-dimethoxyphenyl)pyrazolo [1,5-a]pyrimidine-2-carboxamido)picolinate] | 200 to 2000
COc1ccc(-c2ccnc3cc(C(=O)N[C@H]4CC[C@H](C(=O)NCCCN5CCOCC5)CC4)nn23)cc1OC [Compound 203, 7-(3,4-dimethoxyphenyl)-N-((1r,4r)-4-((3-morpholinopropyl)carbamoyl)cyclohexyl) pyrazolo[1,5-a]pyrimidine-2-carboxamide] | ≥ 2000
COc1ccc(-c2ccnc3cc(C(=O)N[C@H]4CC[C@@H](C(=O)N5CCNCC5)CC4)nn23)cc1OC [Compound 81, 7-(3,4-dimethoxyphenyl)-N-((1S,4S)-4-(piperazine-1-carbonyl)cyclohexyl) pyrazolo[1,5-a]pyrimidine-2-carboxamide] | ≥ 2000
COc1ccc(-c2ccnc3cc(C(=O)Nc4ccc(C(=O)N5CCC(N6CCOCC6)CC5)cc4F)nn23)cc1OC [Compound 349, 7-(3,4-dimethoxyphenyl)-N-(2-fluoro-4-(4-morpholinopiperidine-1-carbonyl)phenyl)pyrazolo [1,5-a]pyrimidine-2-carboxamide] | < 200
COC(=O)c1ccc(NC(=O)c2cc3nccc(-c4ccc(OC)cc4)n3n2)cc1 [Compound 23, methyl 4-(7-(4-methoxyphenyl)pyrazolo[1,5-a]pyrimidine-2-carboxamido)benzoate] | ≥ 2000
COc1ccc(-c2ccnc3cc(C(=O)N4CCN(C(=O)c5ccoc5)[C@@H](C)C4)nn23)cc1OC [Compound 370, (S)-(7-(3,4-dimethoxyphenyl)pyrazolo[1,5-a]pyrimidin-2-yl)(4-(furan-3-carbonyl)-3-methylpiperazin-1-yl)methanone] | < 200
COc1ccc(-c2ccnc3cc(C(=O)N[C@H]4CC[C@H](C(N)=O)CC4)nn23)cc1OC [Compound 74, N-((1R,4R)-4-carbamoylcyclohexyl)-7-(3,4-dimethoxyphenyl)pyrazolo [1,5-a]pyrimidine-2-carboxamide] | ≥ 2000
COc1ccc(-c2ccnc3cc(C(=O)Nc4ccc5c(c4)OCO5)nn23)cc1OC [Compound 310, N-(benzo[d][1,3]dioxol-5-yl)-7-(3,4-dimethoxyphenyl)pyrazolo[1,5-a]pyrimidine-2-carboxamide] | < 200
COc1ccc(-c2ccnc3cc(C(=O)Nc4ccc(C(=O)OCCN5CCCC5)cc4)nn23)cc1OC [Compound 225, 2-(pyrrolidin-1-yl)ethyl 4-(7-(3,4-dimethoxyphenyl)pyrazolo [1,5-a]pyrimidine-2-carboxamido)benzoate] | ≥ 2000

Reference: US20240199623A1 (ILDONG PHARMACEUTICAL CO., LTD., priority 2020, published 2024)
